US5147876A, “2,6-di,2,4,6-, 2,5,6-tri and 2,4,5,6-tetra-substituted pyrimidines, their pharmaceutically acceptable salts, pharmaceutical compositions containing same and their use in the treatment of neurological diseases” (Mitsui Petrochemical Industries, Ltd., priority 1988, dated 1992)

What was measured:
[1] = system: neuro-2a (mouse neuroblastoma cells); experiment: Action on neuro-2a: proportion of cells containing outgrown neurites; assay type: cell-based; settings: mean ± S.D.
Outline: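 Mouse neuro-2a cells at 1,000 cells/well in DMEM with 10% FCS were cultured one day at 37 °C, 5% CO2, then glutaraldehyde-fixed and methylene-blue-stained. The proportion of cells bearing a neurite at least twice the cell's long diameter was counted over >200 cells; up to 6 concentrations, triplicate runs.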

[2] = system: rats with crushed sciatic nerves; experiment: Twitch tension of hind paw in rats with crushed sciatic nerves; assay type: in vivo, rat (male Wistar)
Experimental: (§1) The therapeutic effect of the compound of the invention was tested on rats having crushed sciatic nerves as a model of peripheral nervous disorder using (1) a change in the action of the hind paw with the crushed sciatic nerves and (2) a change in the weight of the muscle as an index of the course of degeneration and regeneration of peripheral nerves.
(§2) In the experiment, male Wistar rats (6 weeks old), seven per group, were used. The sciatic nerves were crushed by a method similar to the method of Yamatsu et al. (see Kiyomi Yamatsu, Takenori Kaneko, Akifumi Kitahara and Isao Ohkawa, Journal of Japanese Pharmacological Society, 72, 259-268 (1976) and the method of Hasegawa et al. (see Kazuo Hasegawa, Naoji Mikuni and Yutaka Sakai, Journal of Japanese Pharmacological Society, 74, 721-734 (1978). Specifically, under anesthesia with pentobarbital (40 mg/kg, i.p.), the left side sciatic nerve was exposed at the femur, and a specific site of the exposed sciatic nerve was crushed for 30 seconds by using a hemostat. After the crushing, the operation site was immediately sutured. Thereafter, vincristine known to retard the regeneration of the peripheral nerve was intraperitoneally administered in a dose of 100 g/kg once a week.
(§3) Compounds of the invention were selected as test drugs, and administered intraperitoneally once a day from the day of crushing to 30th day from then. To a control group, only 0.9 % saline was administered.
Twitch tension, which is a transient tension incident to contraction of the dominated muscles that occurs by electrical stimulation or the like of motor nerves, as is the case with the interdigit distance to be described, is considered to reflect functional changes of the nerves and muscles.
[…] J. Neurosci. Methods, 19, 259 (1987)]. Specifically, the hair on the hind paw of rats was shaven, and coated with Cardiocream (a product of Nihon Denko K.K.). Then, to the skin of the hind paw, electrodes with an alligator were attached The cathode was attached to the rear portion of the trochiter, and the […], to a site 1 cm rearwardly of the […] electrode and 1 cm toward its back. The rat was fixed on its back, and the hind paw to be measured was fixed perpendicularly. A silk yarn, about 20 cm long, was connected at one end to the third efferent toe joint of the hind paw to be measured and at the other end to a tension transducer. Isotonic contractions of the third muscle digitus flexus were recorded on a polygraph. Electrical stimulation was effected at a voltage of 100V for a continuous duration of 1 msec. with rectangular waves at a frequency of 2 Hz. The static tension was 15 to 30 g, and 10 stimulations were repeated 3 times with intervals of 15 seconds. The contracting force was expressed as tension (g). From the measured values of both paws, the recovery ratio (%, left/right) of the contracting force of the paw with crushed nerves was calculated.

[3] = system: rats having crushed sciatic nerves; experiment: Interdigit distance in rats with crushed sciatic nerves; assay type: in vivo, rat (male Wistar); settings: 30 mg/kg, i.p.
Experimental: as §1
as §2, with “Thereafter, vincristine known to retard the regeneration of the peripheral nerve was intraperitoneally administered in a dose of 100 g/kg once a week.” left out
By a method similar to the method of Hasegawa [Hasegawa, K., Experientia, 34, 750-751 (1978)], the distance between the first and fifth digits of the hind paw was measured.
The ratio of the measured distance to the interdigit distance in a normal hind paw was calculated and expressed in percentage (%). […]

[4] = system: rats with lesioned nigral dopaminergic nerve cells; experiment: Motor imbalance (methamphetamine-induced rotation) after 6-hydroxydopamine lesion and transplantation of fetal cerebral cells; assay type: in vivo, rat (female Wistar)
Experimental: Nigral dopaminergic nerve cells at the left side of the brain of 4-week old female Wistar rats (body weight 100 g) were lesioned by injecting a very small quantity of 6-hydroxydopamine. […] Upon administration of methamphethamine (5 mg/kg, i.p.) to the rats having the lesioned nigral dopaminergic nerve cells, they began rotational movement toward the lesioned side.
After two weeks from the destruction by the administration of the drug, portions of the […] containing dopamine cells (i.e., substantial nigra and the tagmentum at the abdomen side) were cut from the brain of a fetal rat of 14 to 17 days of age, cut finely, and treated with trypsin. Then, the extracted tissues were incubated at 37° C. for 30 minutes, and the tissues were subjected to pipetting to form a suspension. Five microliters of the suspension was transplanted each into two sites of the caudate nucleus of the lesioned side (10 microliters in total, about 10^5 cells)
Compound No. 168 of the invention was administered in a dose of 156 mg/kg (i.p.) for 4 days from the day of transplantation, then with a suspension of 7 days, for 10 days in a dose of 50 mg/kg (i.p.) from the 11th day. Compound No. 296 was administered in a dose of 153 mg/kg, and then 50 mg/kg, in accordance with the same schedule.
Compound No. 3144 was also administered in accordance with the same schedule in a dose of 135 mg/kg, and then 45 mg/kg.
The rotational movements induced by administration of methamphetamine were examined 2 weeks and 1 week before, and 2 (or 3), 4, 6 and 8 weeks after, the transplantation and the administration of the drug. The number of rotational movements for the first one minute was counted at intervals of 10 minutes after the administration of methamphetamine, and the total number of rotational movements counted six times was averaged to find a mean number of the rotational movements.

Acute toxicity on mice = assay type: in vivo; settings: mouse, in vivo, ip, 24 hours after administration; read-out: Estimated LD50
Experimental: The acute toxicity of the compounds of the invention was examined by the following method.
Male ddy-strain 5-week old mice, 4-6- per group, were used as experimental animals. Each of the compounds was intraperitoneally (i.p.), and the toxicity of the compound was assessed 24 hours after the administration.

[5] = system: NS-20Y (mouse neuroblastoma cells); experiment: Activity on NS-20Y cells: appearance of neurites; assay type: cell-based
Outline: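 Mouse neuroblastoma NS-20Y cells were grown in polyornithine-coated dishes in DMEM with 10 % FCS, 100 units/ml penicillin G sodium and 100 micrograms/ml streptomycin sulfate, at 37° C under 5 % carbon dioxide, and exposed to compound. Cells were fixed with 4 % glutaraldehyde, stained with 0.05 % methylene blue, and the fraction bearing neurites at least twice the cell's long diameter was counted microscopically.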

[6] = system: rats with crushed sciatic nerves; experiment: Weight of muscle extensor digitorum longus in rats with crushed sciatic nerves; assay type: in vivo, rat (male Wistar); settings: thirty days after operation, mean ± S.D.
Experimental: as §1, §2, §3
It is known that removal of a nerve or its disorder causes atorphy of the muscle which is under its control, and the atrophy is gradually cured by re-control by the nerve. For this reason, a change in the weight of the muscle, which is quantitative, was selected as an index. Thirty days after the operation, the muscles extensor digitorum longus of both hind paws which are muscles under the control of sciatic nerves were extracted under anesthesia, and their weights were measured. The ratio of the weight of the muscle extensor digitorum longus on the crushed side to that of normal side was calculated and expressed in percentage (%).

[7] = 3 W after transplantation, i.p. 168: 156 then 50, 296: 153 then 50, 3144: 135 then 45 mg/kg
[8] = 4 W after transplantation, i.p. 168: 156 then 50, 296: 153 then 50, 3144: 135 then 45 mg/kg
[9] = 6 W after transplantation, i.p. 168: 156 then 50, 296: 153 then 50, 3144: 135 then 45 mg/kg
[10] = 8 W after transplantation, i.p. 168: 156 then 50, 296: 153 then 50, 3144: 135 then 45 mg/kg
[11] = -1 W (before transplantation and drug)

| Structure (SMILES) | Number of cells having neurites with a length at least two times the diameter of each cell/total number of cells ([1]; 0.1 mM) | Number of cells having neurites with a length at least two times the diameter of each cell/total number of cells ([1]; 0.3 mM) | mean number of the rotational movements [4, 7] | mean number of the rotational movements [4, 8] | mean number of the rotational movements [4, 9] | mean number of the rotational movements [4, 10] | mean number of the rotational movements [4, 11] | LD50 at 24 h (Acute toxicity on mice) | further results |
| --- | --- | --- | --- | --- | --- | --- | --- | --- | --- |
| CN1C(=O)Cc2cnc(N3CCN(C(c4ccccc4)c4ccc(Cl)cc4)CC3)nc21 (stereo not shown) [Compound 3144] | 34.1 ± 3.8% | 44.5 ± 9.7% | 7.7 ± 4.7 | 4.0 ± 5.6 | 0.2 ± 2.2 | 1.1 ± 4.1 | 14.1 ± 4.7 | 500 to 1000 mg/kg | Number of cells having neurites with a length at least two times the diameter of each cell/total number of cells ([1]; 0.03 mM): 20.8 ± 4.7%; Number of cells having neurites with a length at least two times the diameter of each cell/total number of cells ([1]; 1 mM): 32.2 ± 1.6%; Twitch tension left/right ([2]; Table 15, 30 mg/kg, 18th days): 54.5 ± 17.1%; Twitch tension left/right ([2]; Table 15, 30 mg/kg, 23rd days): 57.9 ± 15.5%; Recovery of the interdigit distance ([3]; 18th days): 72.7 ± 14.0%; Recovery of the interdigit distance ([3]; 23rd days): 83.8 ± 12.2% |
| CN(C(=O)c1ccccc1)c1ccnc(N2CCC(c3ccccc3)CC2)n1 [Compound 168, 4-(N-methylbenzamino)-2-(4-phenylpiperidino)pyrimidine p-toluenesulfonate] | 35.7 ± 0.8% | 14.6 ± 4.3% | 9.1 ± 5.6 | 4.5 ± 4.5 | 1.5 ± 3.9 | 0.8 ± 2.1 | 13.3 ± 7.8 | > 1000 mg/kg | Number of cells having neurites with a length at least two times the diameter of each cell/total number of cells ([1]; 0.05 mM): 23.8 ± 2%; Number of cells having neurites with a length at least two times the diameter of each cell/total number of cells ([1]; 0.2 mM): 24.4 ± 6.9%; Number of cells in which neurites appeared/total number of cells ([5]; 24 hours, 0.1 mM): 26/50; Number of cells in which neurites appeared/total number of cells ([5]; 24 hours, 0.25 mM): 12/50; Number of cells in which neurites appeared/total number of cells ([5]; 48 hours, 0.1 mM): 20/55; Twitch tension left/right ([2]; Table 14, 10 mg/kg i.p. once a day, 30 days, mean ± S.D., *2 p < 0.05): 48.4 ± 11.8%; Twitch tension left/right ([2]; Table 14, 30 mg/kg i.p. once a day, 30 days, mean ± S.D., 168: *3 p < 0.01, 296: *2 p < 0.05): 51.2 ± 13.6%; Weight of muscle extensor digitorum longus left/right ([6]; 10 mg/kg): 52.1 ± 5.4%; Weight of muscle extensor digitorum longus left/right ([6]; 30 mg/kg, *2 p < 0.05): 59.4 ± 11.8% |
